Measured values: the supplement of paper PMC10331698
± gives the standard deviation of the averaged measurements.

How the values were obtained:
Assay in all cases: level (log10 ratio to DMSO vehicle control); higher = higher biomarker level / cell amount than vehicle control
Settings in all cases: in DMSO
[1] = compound: O=C(O)C(F)(F)C(F)(F)C(F)(F)C(F)(F)C(F)(F)C(F)(F)C(F)(F)C(F)(F)C(F)(F)C(F)(F)C(F)(F)C(F)(F)C(F)(F)F [Perfluorotetradecanoic acid]
Description: (§1)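 BioMAP Diversity Plus panel of 12 human primary cell co-culture systems (3C, 4H, LPS, SAg, BT, BF4T, BE3C, CASM3C, HDF3CGF, KF3CT, MyoF, Mphg). Compounds were added 1 h before stimulation and left for 24 h (MyoF 48 h; BT 72 h for soluble read-outs or 6 d for IgG). Biomarkers were read by ELISA, cytotoxicity by SRB, PBMC viability and proliferation by Alamar Blue. Each well value was divided by the mean of 8 DMSO control wells on the same plate and log10 transformed; duplicate blinded samples were tested at 4 concentrations.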

1-(Perfluorohexyl)octane = compound: CCCCCCCCC(F)(F)C(F)(F)C(F)(F)C(F)(F)C(F)(F)C(F)(F)F [1-(Perfluorohexyl)octane]
Description: as §1

[2] = compound: O=C(O)C(F)(F)C(F)(F)C(F)(F)C(F)(F)C(F)(F)C(F)(F)C(F)(F)C(F)(F)Cl [9-Chloro-perfluorononanoic acid]
Description: as §1

[3] = compound: O=C(O)C(F)(F)OC(F)(F)C(F)(F)OC(F)(F)C(F)(F)C(F)(F)C(F)(F)F [Perfluoro-3,6-dioxadecanoic acid]
Description: as §1

| Test System | level (log10) ([1]; 6700 nM) | level (log10) ([1]; 20000 nM) | level (log10) (1-(Perfluorohexyl)octane; 6700 nM) | level (log10) (1-(Perfluorohexyl)octane; 20000 nM) | level (log10) ([2]; 6700 nM) | level (log10) ([2]; 20000 nM) | level (log10) ([3]; 6700 nM) | level (log10) ([3]; 20000 nM) | level (log10) ([3]; 60000 nM) |
| --- | --- | --- | --- | --- | --- | --- | --- | --- | --- |
| BF4T:MMP-3 | 0.027 ± 0.04 | 0.0475 ± 0.066 | 0.005 ± 0.0057 | -0.0135 ± 0.016 | 0.0535 ± 0.023 | 0.118 ± 0.035 | 0.008 ± 0.0057 | 0.11 ± 0.015 | 0.161 ± 0.037 |
| BF4T:MMP-9 | -0.0165 ± 0.047 | 0 ± 0.035 | -0.014 ± 0.02 | 0.005 ± 0.025 | -0.0395 ± 0.036 | -0.0715 ± 0.019 | -0.035 ± 0.0057 | -0.0215 ± 0.0064 | -0.051 ± 0.02 |
| BF4T:PAI-I | 0.014 ± 0.0028 | 0.0245 ± 0.029 | 0.0075 ± 0.026 | 0.0005 ± 0.028 | -0.027 ± 0.0042 | -0.052 ± 0.0028 | -0.057 ± 0.011 | -0.0575 ± 0.005 | -0.054 ± 0.042 |
| BF4T:SRB | 0.0025 ± 0.0092 | 0.001 ± 0.0071 | -0.0045 ± 0.0035 | -0.0035 ± 0.0035 | -0.013 ± 0.0071 | -0.0555 ± 0.0064 | -0.024 ± 0.0014 | -0.023 ± 0.0057 | -0.053 ± 0.0085 |
| BF4T:tPA | -0.0015 ± 0.019 | 0.0015 ± 0.049 | 0.0075 ± 0.013 | 0.026 ± 0.0057 | -0.075 ± 0.0099 | -0.098 ± 0.0099 | -0.051 ± 0.0014 | -0.0565 ± 0.026 | 0.0105 ± 0.05 |
| BF4T:uPA | 0.0075 ± 0.0078 | 0.017 ± 0.0028 | -0.0105 ± 0.0035 | -0.0125 ± 0.00071 | -0.0045 ± 0.012 | -0.01 ± 0.0071 | 0.0105 ± 0.005 | 0.008 ± 0.013 | 0.025 ± 0.031 |
| BT:B cell Proliferation | -0.0055 ± 0.023 | -0.0035 ± 0.028 | 0.0145 ± 0.011 | 0.012 ± 0.011 | 0.04 ± 0.038 | 0.037 ± 0.017 | 0.012 ± 0.0071 | 0.0415 ± 0.019 | 0.055 ± 0.011 |
| BT:PBMC Cytotoxicity | -0.01 ± 0.0042 | 0.0305 ± 0.059 | 0 ± 0.013 | 0.0225 ± 0.0021 | 0.015 ± 0.028 | 0.0355 ± 0.015 | 0.017 ± 0.028 | 0.0265 ± 0.0021 | 0.0915 ± 0.005 |
| BT:Secreted IgG | -0.029 ± 0.072 | 0.001 ± 0.03 | 0.0355 ± 0.012 | 0.04 ± 0.028 | 0.0065 ± 0.06 | 0.0175 ± 0.011 | 0.0295 ± 0.012 | 0.0235 ± 0.033 | -0.0365 ± 0.0064 |
| BT:sIL-2 | 0.0535 ± 0.011 | 0.0415 ± 0.069 | -0.024 ± 0.073 | 0.0635 ± 0.067 | -0.0175 ± 0.066 | -0.0565 ± 0.1 | 0.0465 ± 0.036 | 0.0285 ± 0.16 | -0.011 ± 0.095 |
| BT:sIL-6 | -0.0615 ± 0.052 | -0.0545 ± 0.13 | -0.0155 ± 0.094 | -0.006 ± 0.03 | 0.0155 ± 0.022 | 0.0135 ± 0.018 | 0.0375 ± 0.029 | 0.0265 ± 0.039 | -0.058 ± 0.033 |
| BT:sIL-17A | -0.111 ± 0.021 | -0.059 ± 0.16 | 0.06 ± 0.018 | 0.0085 ± 0.12 | 0.015 ± 0.054 | 0.008 ± 0.047 | 0.034 ± 0.12 | 0.045 ± 0.22 | -0.147 ± 0.065 |
| BT:sIL-17F | -0.019 ± 0.058 | -0.0085 ± 0.028 | 0.083 ± 0.033 | 0.089 ± 0.0071 | -0.0055 ± 0.074 | 0.011 ± 0.024 | -0.016 ± 0.055 | -0.0335 ± 0.12 | -0.021 ± 0.1 |
| BT:sTNF-alpha | 0.014 ± 0.11 | -0.082 ± 0.092 | 0.0415 ± 0.028 | 0.126 ± 0.16 | 0.0075 ± 0.011 | 0.0075 ± 0.022 | 0.0675 ± 0.086 | 0.0875 ± 0.08 | -0.046 ± 0.051 |
| LPS:CCL2/MCP-1 | 0.013 ± 0.055 | 0.0055 ± 0.077 | 0.006 ± 0.021 | 0.017 ± 0.013 | 0.005 ± 0.038 | 0.006 ± 0.0028 | 0.008 ± 0.0085 | 0.0005 ± 0.0078 | -0.042 ± 0.05 |
| LPS:CD40 | 0.0005 ± 0.12 | 0 ± 0.11 | -0.0355 ± 0.079 | -0.0205 ± 0.049 | 0.02 ± 0.064 | 0.055 ± 0.0071 | -0.0125 ± 0.0078 | -0.0265 ± 0.023 | -0.14 ± 0.055 |

| Test System | level (log10) ([1]; 6700 nM) | level (log10) ([1]; 20000 nM) | level (log10) (1-(Perfluorohexyl)octane; 6700 nM) | level (log10) (1-(Perfluorohexyl)octane; 20000 nM) | level (log10) ([2]; 6700 nM) | level (log10) ([2]; 20000 nM) | level (log10) ([3]; 6700 nM) | level (log10) ([3]; 20000 nM) | level (log10) ([3]; 60000 nM) |
| --- | --- | --- | --- | --- | --- | --- | --- | --- | --- |
| LPS:CD62E/E-Selectin | -0.0035 ± 0.011 | 0.01 ± 0.04 | -0.005 ± 0.031 | 0.0115 ± 0.029 | -0.0095 ± 0.033 | 0.034 ± 0.0057 | 0.008 ± 0.034 | 0.006 ± 0.04 | 0.024 ± 0.04 |
| LPS:CD69 | -0.012 ± 0.025 | -0.027 ± 0.068 | -0.012 ± 0.061 | 0.007 ± 0.038 | -0.0335 ± 0.026 | -0.063 ± 0.028 | -0.009 ± 0.0099 | -0.0425 ± 0.026 | -0.191 ± 0.088 |
| LPS:CD106/VCAM-1 | -0.036 ± 0.033 | -0.0565 ± 0.039 | 0.001 ± 0.0057 | 0.017 ± 0.0085 | -0.008 ± 0.045 | 0.003 ± 0.037 | 0.002 ± 0.037 | -0.0175 ± 0.035 | -0.092 ± 0.014 |
| LPS:CD141/Thrombomodulin | 0.009 ± 0.1 | -0.002 ± 0.072 | -0.0215 ± 0.0021 | 0.0025 ± 0.023 | 0.0485 ± 0.033 | 0.064 ± 0.03 | 0.0245 ± 0.025 | 0.001 ± 0.04 | -0.0235 ± 0.0078 |
| LPS:CD142/Tissue Factor | 0.0225 ± 0.04 | 0.0025 ± 0.098 | -0.006 ± 0.088 | 0.003 ± 0.083 | 0.0165 ± 0.059 | 0.0375 ± 0.016 | 0.031 ± 0.054 | -0.029 ± 0.03 | -0.0375 ± 0.083 |
| LPS:CXCL8/IL-8 | 0.0125 ± 0.077 | 0.0255 ± 0.16 | 0.0335 ± 0.00071 | 0.0405 ± 0.026 | 0.019 ± 0.062 | 0.061 ± 0.048 | -0.0175 ± 0.0092 | -0.0145 ± 0.013 | 0.018 ± 0.02 |
| LPS:IL-1alpha | -0.031 ± 0.071 | -0.045 ± 0.09 | -0.0215 ± 0.016 | 0.001 ± 0.0057 | 0.038 ± 0.017 | 0.025 ± 0.021 | -0.008 ± 0.0085 | -0.0225 ± 0.03 | -0.04 ± 0.013 |
| LPS:M-CSF | -0.0435 ± 0.0021 | -0.0695 ± 0.037 | -0.0065 ± 0.021 | 0.0235 ± 0.037 | -0.0125 ± 0.0078 | 0.0485 ± 0.047 | 0.006 ± 0.018 | -0.0115 ± 0.03 | -0.013 ± 0.0057 |
| LPS:SRB | -0.011 ± 0.0042 | -0.0055 ± 0.018 | 0.0035 ± 0.0078 | 0.0035 ± 0.011 | 0.0015 ± 0.012 | -0.0035 ± 0.013 | -0.01 ± 0.014 | -0.0025 ± 0.005 | -0.105 ± 0.069 |
| LPS:sPGE2 | 0.0005 ± 0.011 | 0.0255 ± 0.019 | 0.011 ± 0.018 | 0.02 ± 0.0042 | 0.0175 ± 0.0092 | -0.0895 ± 0.0078 | -0.105 ± 0.011 | -0.161 ± 0.0078 | -0.248 ± 0.03 |
| LPS:sTNF-alpha | -0.009 ± 0.037 | 0.003 ± 0.018 | 0.0005 ± 0.0064 | -0.0015 ± 0.013 | -0.0115 ± 0.0078 | -0.004 ± 0.014 | 0.012 ± 0.011 | 0.0155 ± 0.018 | 0.0135 ± 0.015 |
| SAg:CCL2/MCP-1 | -0.021 ± 0.0057 | -0.0185 ± 0.0064 | -0.01 | 0.0015 ± 0.018 | 0.017 ± 0.021 | -0.0055 ± 0.005 | 0.017 ± 0.088 | -0.0255 ± 0.00071 | -0.0895 ± 0.026 |
| SAg:CD38 | -0.0205 ± 0.03 | -0.018 ± 0.016 | 0.0015 ± 0.0078 | 0.0105 ± 0.00071 | -0.02 ± 0.021 | -0.0315 ± 0.028 | -0.0115 ± 0.0021 | -0.021 ± 0.0057 | -0.061 ± 0.069 |
| SAg:CD40 | -0.0395 ± 0.069 | -0.081 ± 0.085 | -0.0275 ± 0.00071 | -0.017 ± 0.016 | -0.013 ± 0.033 | -0.024 ± 0.031 | 0.003 ± 0.0028 | -0.0195 ± 0.016 | -0.08 ± 0.052 |
| SAg:CD62E/E-Selectin | 0 ± 0.0028 | 0.019 ± 0.0028 | -0.019 ± 0.013 | 0.003 ± 0.0099 | -0.017 ± 0.0042 | 0.017 ± 0.014 | 0.027 ± 0.058 | 0.0485 ± 0.025 | 0.065 ± 0.081 |
| SAg:CD69 | -0.0155 ± 0.016 | -0.018 ± 0.028 | -0.0045 ± 0.011 | -0.0045 ± 0.028 | -0.0405 ± 0.043 | -0.035 ± 0.028 | 0 ± 0.013 | -0.0405 ± 0.00071 | -0.105 ± 0.067 |
